# Key:
# [1] = test system: SaOS-2 cell
# Description: For the initial experiments, cells were seeded on the surface of clots.
# [2] = test system: osteosarcoma cell line UMR-106; settings: for PTH bioactivity: 24 h pre-incubation of UMR-106 cells with 20 mM salt prior to TGplPTH treatment, five experiments; for synergistic effect with PTH in generation of cAMP: UMR-106 osteoblast cells, 20 mM salt
# Description: The present example describes in vitro studies on rat osteosarcoma cells to investigate if a combination of parathyroid hormone (PTH) and Strontium (used as SrCl2) on activation of bone formation factors like increased cAMP production in osteoblasts.
# The osteosarcoma cell line UMR-106 (NewLab Bioquality AG, Erkrath, Germany) was used to perform the bioassay.
# UMR-106 cells were seeded in growth medium at a density of 30000 cells/cm^2 and incubated at 37° C./8.0% CO2 After 24 hours, medium was exchanged with either fresh medium, medium containing 20 mM SrCl2 or medium containing 20 mM CaCl2. Cells were further incubated at 37° C./8.0% CO2 for 24 hours. Cells were harvested according to the following procedure:
# Cells were washed twice with HBSS and detached from the surface using 6 ml trypsine/EDTA for 3 min at room temperature. Trypsin digestion was stopped with 12 ml growth medium. Following centrifugation (3 min, 1000 rpm, RT) cells were resuspended in 12 ml starvation medium and counted with a CASY cell counter. The rate of dead cells was below 10% in every experiment. Cells were resuspended to a final concentration of 1.6×10^6 cells/ml in starvation medium. 50 μl of cell suspension was transferred into each well of a 96-well plate and incubated for 30 min at 37° C., 8.0% CO2.
# Samples were diluted in freshly prepared starvation medium containing 2 mM IBMX (SI medium). For preparation of SI-medium 30 μl of a 0.67M IBMX stock in DMSO was added to 10 ml of starvation medium.
# All sample dilutions were prepared with this medium to inhibit phosphodiesterase activity in UMR-106 cells (Janik, P., 1980; Chasin M. and Harris, D. N., 1976). 50 μl of diluted samples (as indicated in results) were added to the cells after 30 min incubation at 37° C. For cAMP production cells were incubated for 1 h at 37° C., 8.0% CO2. Each sample concentration was added to cells at least in duplicates following cAMP analysis in duplicates.
# Cell lysis and dilution of cAMP For extraction of cAMP 100 μl of cell suspension containing PTH was incubated with 25 μl (final dilution 1:5) lysis reagent solvent 1A that is part of the cAMP Biotrak EIA kit (GE Healthcare). For total lysis, cells were shaken for 15 min at 500 rpm at room temperature. […]
# Data analysis. The optical density was determined in a plate reader (Synergy HT) by measuring the absorbance of the samples at 450 nm using the software KC4. […]
# cAMP concentration of the samples. Taking into account the dilution factor (20×) the produced cAMP amounts were calculated using the parameters (slope and intercept) of the standard curve.
# Preparation of Samples for Bioassay Analysis. […] For all samples and all dilutions, mean values of OD450, standard deviations, cAMP concentrations and coefficients of variations were calculated.
# [3] = test system: human osteoblast-like cells (SaOS-2); experiment: Alamar Blue proliferation of cells grown on fibrin clots; assay type: cell-based; settings: SaOS-2 on clots up to 7 days; Sr salt in thrombin dilution buffer; compared to normal clot with 20 mM CaCl2
# Description: (§1) For in-vitro experiments, the clots were prepared by pipetting 150 μl of the fibrinogen solution to the wells of a 24 well plate. The plate was put on plate shaker to ensure an even distribution over the well bottom. 150 μl of the thrombin solution was then added to the well and the plate was put on a plate shaker to ensure homogeneous clots. A human osteoblast-like cell line (SaoS-2) was cultured on the clots for up to 7 days to see if any differences in cell proliferation/cell differentiation could be observed.
# [4] = test system: human osteoblast-like cells (SaOS-2); experiment: alkaline phosphatase production of cells grown on fibrin clots; assay type: cell-based; settings: SaOS-2 on clots containing strontium; production over 30 minutes; preliminary result
# Description: as §1
# These experiments are being repeated with a 14 day investigative period.
# [5] = turbidimetric analysis of clots; assay type: physicochemical; settings: strontium containing clots in comparison to calcium containing clots
# Description: In addition to the cell studies observation, turbidmetric analysis was carried out to examine if the clot structure was altered as a result of the strontium (FIG. 4) The clot turbidity is directly proportional to average cross-sectional area of the fibres, therefore the more turbid the clot the greater the fiber diameter.
SMILES,"time at which cell death occurs ([1]; SaOS-2, 12.5 mM CaCl2 in medium)","cell survival / proliferation (MTS assay) ([1]; SaOS-2 on tissue culture plastic, medium with 12.5 mM Sr or Ca)",PTH bioactivity [2],synergistic effect with PTH in generation of cAMP [2],proliferation (Alamar Blue) [3],alkaline phosphatase expression [4],clot turbidity (kinetics and absorbance) [5]
"[Ca+2].[Cl-].[Cl-] [CaCl2, calcium chloride, reference compound]",≤ 24 h,Cell death,no change in PTH bioactivity,No such effect,,,
"[Cl-].[Cl-].[Sr+2] [SrCl2, Strontium Chloride]",,,twofold increased bioactivity,positive synergistic effect,significant increased proliferation,increase in alkaline phosphatase expression,very little difference in the kinetics and absorbance
CC(=O)[O-].CC(=O)[O-].[Sr+2] [Strontium Acetate],,,,,,appear not to be significant,

# — patent US20080260714A1, “Fibrin Compositions Containing Strontium Compounds” (BAXTER INTERNATIONAL INC., priority 2007, published 2008)
